These are literature values, as cited in patent US20160296627A1, “INTRACAMERAL IMPLANT FOR TREATMENT OF AN OCULAR CONDITION” (Envisia Therapeutics Inc., priority 2013, published 2016).

The structures appear in SMILES notation.

Sequence of Cloned Human Ciliary Body FP Prostaglandin Receptor (P43088 whole entry): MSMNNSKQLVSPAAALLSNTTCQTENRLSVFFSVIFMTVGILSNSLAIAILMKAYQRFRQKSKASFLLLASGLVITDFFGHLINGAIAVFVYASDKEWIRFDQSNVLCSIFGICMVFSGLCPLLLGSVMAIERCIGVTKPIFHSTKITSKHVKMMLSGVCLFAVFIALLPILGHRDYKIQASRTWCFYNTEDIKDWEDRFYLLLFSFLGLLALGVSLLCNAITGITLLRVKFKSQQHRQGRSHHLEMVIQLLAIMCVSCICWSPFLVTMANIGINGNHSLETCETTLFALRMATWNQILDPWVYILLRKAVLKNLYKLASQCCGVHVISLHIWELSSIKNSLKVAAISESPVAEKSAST

The data set addresses Cloned Human Ciliary Body FP Prostaglandin Receptor (Homo sapiens, UniProt P43088). The conditions noted are these: Sharif et al. 2002, read-out: Functional Potency, EC50.
The term EC50 denotes the concentration giving half of the maximal effect. Consider `CCNC(=O)CCC/C=C\C[C@@H]1[C@@H](/C=C/[C@@H](O)CCc2ccccc2)[C@H](O)C[C@@H]1O` [Bimatoprost], for which the EC50 was 694 nM.

As for `CC(C)OC(=O)CCC/C=C\C[C@@H]1[C@@H](CC[C@@H](O)CCc2ccccc2)[C@H](O)C[C@@H]1O` [Latanoprost], the half-maximal effective concentration (EC50) is 126 nM.

With `CC(C)OC(=O)CCC/C=C\C[C@@H]1[C@@H](/C=C/[C@@H](O)COc2cccc(C(F)(F)F)c2)[C@H](O)C[C@@H]1O` [Travoprost, propan-2-yl 7-[3,5-dihydroxy-2-[3-hydroxy-4-[3-(trifluoromethyl)phenoxy]-but-1-enyl]-cyclopentyl]hept-5-enoate], the EC50 is 42.3 nM.

As to `O=C(O)CCC/C=C\C[C@@H]1[C@@H](/C=C/[C@@H](O)CCc2ccccc2)[C@H](O)C[C@@H]1O` [Bimatoprost acid], the EC50 was 5.8 nM.

Consider `O=C(O)CCC/C=C\C[C@@H]1[C@@H](CC[C@@H](O)CCc2ccccc2)[C@H](O)C[C@@H]1O` [Latanoprost acid], for which the EC50 is 54.6 nM.

With `O=C(O)CCCC=CCC1C(O)CC(O)C1C=CC(O)COc1cccc(C(F)(F)F)c1` (stereo not drawn) [Travoprost acid], the EC50 was 3.2 nM.
